The results in this text go back to EP0241395A2, “Sweeteners derived from n-phenylguanidinoacetic and n-phenylethananamidinacetic acids, and compositions containing such sweeteners” (UNIVERSITE CLAUDE BERNARD - LYON 1, priority 1986, dated 1987).

SMILES strings stand for the structures.

This assay relates to groupe de huit goûteurs expérimentés. Put plainly: Sweetening power judged by a panel of eight experienced tasters against a sucrose reference solution. As to conditions: weight basis; for Pouvoir édulcorant: Table II, relative to a 2 % sucrose solution; for pouvoir édulcorant, sur une base pondérale: approximate. The format is in vivo. The text has this:
Le pouvoir édulcorant des composés préparés dans les exemples suivants a été évalué par un groupe de huit goûteurs expérimentés. Pour cela, les composés, en solution aqueuse à des concentrations variables, sont comparés, sur le plan gustatif, à une solution témoin de saccharose à 2 % et dans certains cas à 5 % et 10 %, c'est-à-dire à des concentrations correspondant à celles utilisées lors d'un usage courant. Le pouvoir sucrant des édulcorants de synthèse varie en effet suivant la concentration de la solution de saccharose utilisée comme référence. Le pouvoir édulcorant du composé testé par rapport au saccharose correspond alors au rapport pondéral qui existe entre le composé et le saccharose à égale intensité édulcorante, c'est-à-dire quand les saveurs sucrées de la solution du composé testé et de la solution témoin de saccharose sont considérées, par une majorité de goûteurs, avoir la même intensité édulcorante.

Setting [1] is: by comparison with a 2 % sucrose solution.
Setting [2] is: by comparison with a 5 % sucrose solution.
Setting [3] is: by comparison with a 10 % sucrose solution.

Take `N#Cc1ccc(N=C(NCC(=O)O)NC2CCc3ccccc32)cc1` (stereo not drawn) [Exemple 70, acide N-[N-(1-indanyl)amino(4-cyanophénylimino)méthyl]-2-aminoéthanoïque]: the Pouvoir édulcorant was determined as 5000. The “pouvoir édulcorant, sur une base pondérale” value under setting [1] is reported as ~5 000 fois celui du saccharose.
For `Cc1ccc(N=C(NCC(=O)O)N[C@@H](C)c2ccccc2)cc1` [Exemple 12, acide N-[N-(S)-a-méthylbenzylamino (4-méthylphénylimino)méthyl]-2-aminoéthanoïque], the “Pouvoir édulcorant” value is 800. Moreover, the “pouvoir édulcorant, sur une base pondérale” value under setting [1] is about 800 fois celui du saccharose.
Consider `N#Cc1ccc(N=C(NCC(=O)O)NC2CCCCCC2)cc1` [Exemple 45, acide N-[N-cycloheptylamino(4-cyanophénylimino)méthyl]-2-aminoéthanoïque], for which the Pouvoir édulcorant is 60000. Besides, the “pouvoir édulcorant, sur une base pondérale” value under setting [1] is given as ~60 000 fois celui du saccharose.
`N#Cc1ccc(N=C(NCCc2ccccc2)NCC(=O)O)cc1` [Exemple 53, acide N-[N-phényléthylamino(4-cyanophénylimino)méthyl]-2-aminoéthanoïque]: the “Pouvoir édulcorant” value is 8 500. Besides, the “pouvoir édulcorant, sur une base pondérale” value under setting [1] is ~8 500 fois celui du saccharose. Moreover, the “pouvoir édulcorant, sur une base pondérale” value under setting [2] is reported as ~6 100 fois celui du saccharose. In addition, under setting [3], the “pouvoir édulcorant, sur une base pondérale” value is ~4 200 fois celui du saccharose.
As to `Cc1ccccc1N=C(NCC(=O)O)Nc1ccc(C#N)cc1` [Exemple 64, acide N-[N-(2-méthylphényl)amino (4-cyanophénylimino)méthyl]-2-aminoéthanoïque], the Pouvoir édulcorant was found to be 5000. The “pouvoir édulcorant, sur une base pondérale” value under setting [1] is reported as ~5 000 fois celui du saccharose.
For the compound `COc1cc(NC(=N[C@@H](C)c2ccccc2)NCC(=O)O)cc(C(F)(F)F)c1` [Exemple 24, acide N-[N-(S)-α-méthylbenzylamino (3-trifluorométhyl-5-méthoxyphénylimino)méthyl]-2-amino-éthanoïque], the Pouvoir édulcorant stood at 7000. For the same compound, the “pouvoir édulcorant, sur une base pondérale” value under setting [1] is listed as ~7 000 fois celui du saccharose.
For the compound `C[C@H](NC(=Nc1ccc(Cl)c(Cl)c1)NCC(=O)O)c1ccccc1` [Exemple 23, acide N-[N-(S) -α-méthylbenzylamino (3,4-dichlorophénylimino)méthyl]-2-aminoéthanoïque], the Pouvoir édulcorant worked out at 17000. Besides, the “pouvoir édulcorant, sur une base pondérale” value under setting [1] is on record as ~17 000 fois celui du saccharose.
Consider `O=C(O)CNC(=Nc1cc(Cl)cc(Cl)c1)NC1CCCCCC1` [Exemple 44, acide N-[N-cycloheptylamino (3,5-dichlorophénylimino)méthyl]-2-aminoéthanoïque], for which the Pouvoir édulcorant stood at 20000. Moreover, the “pouvoir édulcorant, sur une base pondérale” value under setting [1] is recorded as ~20 000 fois celui du saccharose.
In the case of `CN(C(=Nc1ccc(C#N)cc1)NCC(=O)O)c1ccccc1` [Exemple 74, acide N-[N-(N-méthyl-N-phénylamino) (4-cyanophénylimino)méthyl]-2-aminoéthanoïque], the Pouvoir édulcorant is 18000. Besides, the “pouvoir édulcorant, sur une base pondérale” value under setting [1] is listed as ~18 000 fois celui du saccharose.
With `C[C@H](NC(=Nc1ccccc1)NCC(=O)O)c1ccccc1` [Exemple 1, acide N-[N-(S)-α-méthylbenzylamine (phénylimino)méthyl]-2-aminoéthanoïque], the Pouvoir édulcorant worked out at 5000. Under setting [1], the “pouvoir édulcorant, sur une base pondérale” value is on record as ~5 000 fois celui du saccharose.
In the case of `N#Cc1ccc(N=C(NCC(=O)O)Nc2ccccc2)cc1` [Exemple 41, acide N-[N-phénylamino(4-cyanophénylimino)méthyl]-2-aminoéthanoïque], the Pouvoir édulcorant was 4000. Under setting [1], the “pouvoir édulcorant, sur une base pondérale” value is recorded as ~4 000 fois celui du saccharose. Further, the “pouvoir édulcorant, sur une base pondérale” value under setting [2] is listed as ~1 800 fois celui du saccharose. Further, the “pouvoir édulcorant, sur une base pondérale” value under setting [3] is given as about 650 fois celui du saccharose.
`C[C@H](NC(=Nc1cc(F)cc(F)c1)NCC(=O)O)c1ccccc1` [Exemple 27, acide N-[N-(S)-α-méthylbenzylamine (3,5-difluorophënylimino)méthyl]-2-aminoéthanoïque] showed a Pouvoir édulcorant of 15000. For the same compound, under setting [1], the “pouvoir édulcorant, sur une base pondérale” value is listed as ~15 000 fois celui du saccharose.
For `C[C@H](NC(=Nc1cccc(Cl)c1)NCC(=O)O)c1ccccc1` [Exemple 6, acide N-[N-(S)-α-méthylbenzylamino (3-chlorophénylimino)méthyl]-2-aminoéthanoïque], in that order: 30000 and ~30 000 fois celui du saccharose.
In turn, `Cc1cc(C)cc(N=C(NCC(=O)O)N[C@@H](C)c2ccccc2)c1` [Exemple 25, acide N-[N-(S)-α-méthylbenzylamino (3,5-diméthylphénylimino)méthyl]-2-aminoéthanoïque] displayed a Pouvoir édulcorant of 30000. In addition, the “pouvoir édulcorant, sur une base pondérale” value under setting [1] is recorded as ~30 000 fois celui du saccharose.
In the case of `C[C@H](N=C(NCC(=O)O)Nc1ccc(F)cc1)c1ccccc1` [Exemple 17, acide N-[N-(S)-α-méthylbenzylamine (4-fluorophénylimino)méthyl]-2-aminoéthanoïque], the Pouvoir édulcorant was 4000. Further, the “pouvoir édulcorant, sur une base pondérale” value under setting [1] was ~4 000 fois celui du saccharose.
In turn, `O=C(O)CNC(=Nc1cc(Cl)cc(Cl)c1)NCc1ccccc1` [Exemple 51, acide N-[N-benzylamino(3,5-dichlorophénylimino)méthyl]-2-aminoéthanoïque] gave a Pouvoir édulcorant of 80000. The “pouvoir édulcorant, sur une base pondérale” value under setting [1] is listed as ~80 000 fois celui du saccharose.
`N#Cc1ccc(N=C(NCC(=O)O)NN2CCOCC2)cc1` [Exemple 77, acide N-[N-morpholinoamino(4-cyano-phénylimino)méthyl]-2-aminoéthanoïque]: the “Pouvoir édulcorant” value worked out at 950. For the same compound, the “pouvoir édulcorant, sur une base pondérale” value under setting [1] is about 950 fois celui du saccharose.
The corresponding values for `CC(C)N(C)C(=Nc1ccc(C#N)cc1)NCC(=O)O` [Exemple 32, acide N-[N-méthyl-N-1-méthyléthyl-amino(4-cyanophénylimino)méthyl]-2-aminoéthanoïque] are 80 and about 80 fois celui du saccharose.
Compound `CCN(Cc1ccccc1)C(=Nc1ccc(C#N)cc1)NCC(=O)O` [Exemple 34, acide N-[N-éthyl-N-benzylamino (4-cyanophénylimino)méthyl]-2-aminoéthanoïque] had a Pouvoir édulcorant of 3000. Further, the “pouvoir édulcorant, sur une base pondérale” value under setting [1] is given as ~3 000 fois celui du saccharose.
Compound `Cc1cc(C)cc(N=C(NCC(=O)O)N(C)Cc2ccccc2)c1` [Exemple 88, acide N-[N-méthyl-N-benzylamino (3,5-diméthylphénylimino)méthyl]-2-aminoéthanoïque] showed a Pouvoir édulcorant of 5000. Moreover, under setting [1], the “pouvoir édulcorant, sur une base pondérale” value is given as ~5 000 fois celui du saccharose.
For `O=C(O)CNC(=C[N+](=O)[O-])Nc1cc(Cl)cc(Cl)c1` [Exemple 29, acide N-[2-nitro(3,5-dichlorophénylamino)éthényl]-2-aminoéthanoïque], in that order: 400 and about 400 fois celui du saccharose.
On to `CSc1cccc(N=C(NCC(=O)O)N[C@@H](C)c2ccccc2)c1` [Exemple 10, acide N-[N-(S)-a-méthylbenzylamino (3-méthylmercaptophénylimino)méthyl]-2-aminoéthanoïque], for which the “Pouvoir édulcorant” value is given as 5 500. In addition, the “pouvoir édulcorant, sur une base pondérale” value under setting [1] is reported as ~5 500 fois celui du saccharose.
Turning to `C[C@H](NC(=Nc1ccc(O)cc1)NCC(=O)O)c1ccccc1` [Exemple 20, acide N-[N-(S)-α-méthylbenzylamino (4-hydroxyphénylimino)méthyl]-2-aminoéthanoïque], the “Pouvoir édulcorant” value was 400. Under setting [1], the “pouvoir édulcorant, sur une base pondérale” value is reported as about 400 fois celui du saccharose.
In the case of `O=C(O)CNC(=Nc1ccccc1)NC1CCCCC1` [Exemple 42, acide N-[N-cyclohexylamino(phénylimino)méthyl]-2-aminoéthanoïque], the “Pouvoir édulcorant” value is on record as 100. The “pouvoir édulcorant, sur une base pondérale” value under setting [1] is given as about 100 fois celui du saccharose.
Compound `N#Cc1ccc(N=C(NCC(=O)O)NCc2ccccc2)cc1` [Exemple 52, acide N-[N-benzylamino(4-cyanophénylimino)méthyl]-2-aminoéthanoïque] came in with a Pouvoir édulcorant of 30000. Under setting [1], the “pouvoir édulcorant, sur une base pondérale” value is given as ~30 000 fois celui du saccharose. Under setting [2], the “pouvoir édulcorant, sur une base pondérale” value is on record as ~27 000 fois celui du saccharose. Further, under setting [3], the “pouvoir édulcorant, sur une base pondérale” value is reported as ~22 000 fois celui du saccharose.
`CCC(C)(C)NC(=Nc1ccc(C#N)cc1)NCC(=O)O` [Exemple 38, acide N-[N-(1,1-diméthylpropyl)amino(4-cyanophénylimino)méthyl]-2-aminoéthanoïque]: the “Pouvoir édulcorant” value is 300. For the same compound, under setting [1], the “pouvoir édulcorant, sur une base pondérale” value is about 300 fois celui du saccharose.
Take `O=C(O)CNC(=NS(=O)(=O)c1ccccc1)Nc1cccc(Cl)c1` [Exemple 79, acide N-[phénylsulfonylimino (3-chlorophénylamino)méthyl]-2-aminoéthanoique]: the Pouvoir édulcorant was determined as 17000. The “pouvoir édulcorant, sur une base pondérale” value under setting [1] was ~17 000 fois celui du saccharose.
